Test systems include A498 renal; A549 NSCLC; ACHN renal; EKVX NSCLC; HCC-2998 colon; HOP-62 NSCLC; HT29 colon; IGROV1 ovarian; K-562 leukemia; M14 melanoma; MALME-3M melanoma; MCF7 breast; MDA-MB-435; NCI-H226 lung; NCI-H460 lung; SW-620 colon; UACC-62 melanoma; UO-31 renal; CCRF-CEM leukemia; T-47D breast.
Assay in all cases: growth of human tumour cells (NCI), 48 h

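Assay format: 96-well plates, 48-hour exposure. The concentration for full growth arrest is given as TGI.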

In the case of `C=CCNC(=O)/C(Cc1cc(Br)c(OC)c(Br)c1O)=N\O`, the TGI in the test with A498 renal was 46.7 µM; in the test with A549 NSCLC, 53.4 µM; with ACHN renal it was more than 100 µM; in the test with EKVX NSCLC it was 25.2 µM; in the test on HCC-2998 colon, 14.2 µM; with HOP-62 NSCLC it was 22.9 µM. In addition, the TGI is 35 µM in the test with HT29 colon; 47.8 µM with IGROV1 ovarian; more than 100 µM in the test on K-562 leukemia; 23.6 µM with M14 melanoma; 17.3 µM in the test on MALME-3M melanoma; more than 100 µM in the test on MCF7 breast. Further, the TGI with MDA-MB-435 was 2.69 µM; with NCI-H226 lung, 23.4 µM; in the test with NCI-H460 lung, 15.9 µM; in the test with SW-620 colon it was 26.4 µM; with UACC-62 melanoma, 34.8 µM; with UO-31 renal, 15.6 µM.
Take `C#CCCOC1(OC)N=NC(C)(C)O1` (stereo not given): the TGI in the test with A498 renal, with A549 NSCLC, in the test on ACHN renal, in the test on CCRF-CEM leukemia, in the test on EKVX NSCLC and with HCC-2998 colon was more than 100 µM each time. The TGI with HOP-62 NSCLC, in the test with HT29 colon, in the test with IGROV1 ovarian, with K-562 leukemia, in the test on M14 melanoma and in the test with MALME-3M melanoma was more than 100 µM each time. Further, the TGI with MDA-MB-435, with NCI-H226 lung, with NCI-H460 lung, with SW-620 colon, with T-47D breast and in the test on UACC-62 melanoma was more than 100 µM each time. The compound further returned a TGI with UO-31 renal of more than 100 µM.
For the compound `CC(=N/NC(=S)Nc1c(C)n(C)n(-c2ccccc2)c1=O)/C(C)=N\NC(=S)Nc1c(C)n(C)n(-c2ccccc2)c1=O`, the TGI with A498 renal, in the test with A549 NSCLC, in the test with ACHN renal, in the test on EKVX NSCLC, in the test on HCC-2998 colon and in the test on HOP-62 NSCLC was more than 100 µM each time. Besides, the TGI with HT29 colon, in the test on M14 melanoma, with MALME-3M melanoma, in the test on MDA-MB-435, with NCI-H226 lung and in the test with NCI-H460 lung was more than 100 µM each time. Besides, the TGI in the test on SW-620 colon, with T-47D breast, in the test on UACC-62 melanoma and in the test on UO-31 renal was more than 100 µM in each case.
`Cn1c2ccccc2c(=O)c2c(O)cc3c(c21)C=CC1(CCCC1)O3`: the TGI with A498 renal, in the test with A549 NSCLC, in the test with ACHN renal, in the test on CCRF-CEM leukemia, with EKVX NSCLC and in the test with HCC-2998 colon was more than 100 µM throughout. The TGI with HOP-62 NSCLC, in the test with HT29 colon, in the test on IGROV1 ovarian, with M14 melanoma, in the test with MALME-3M melanoma and in the test on MCF7 breast was more than 100 µM throughout. Also, the TGI in the test with MDA-MB-435, with NCI-H226 lung, in the test with NCI-H460 lung, in the test with SW-620 colon and with UACC-62 melanoma was more than 100 µM in each case.
`CC1=NN2C(=O)CC(=O)N=C2S1`: the TGI in the test on A549 NSCLC, in the test on ACHN renal, in the test with CCRF-CEM leukemia, in the test with EKVX NSCLC, in the test on HOP-62 NSCLC and with HT29 colon was more than 100 µM throughout. The TGI in the test with IGROV1 ovarian, with K-562 leukemia, in the test with M14 melanoma, with MALME-3M melanoma, in the test with MCF7 breast and with MDA-MB-435 was more than 100 µM each time. Also, the TGI in the test on NCI-H226 lung, with NCI-H460 lung, in the test with SW-620 colon, in the test with T-47D breast and in the test with UACC-62 melanoma was more than 100 µM each time.
For `Cc1cc(S(=O)(=O)Nc2nc(N)nc(N3CCOCC3)n2)c(SCC(=O)O)cc1Cl`, the TGI with A498 renal, with A549 NSCLC, in the test on ACHN renal, with CCRF-CEM leukemia, with EKVX NSCLC and with HCC-2998 colon was more than 10 µM throughout. The TGI in the test on HOP-62 NSCLC, in the test with HT29 colon, in the test with IGROV1 ovarian, with K-562 leukemia, with M14 melanoma and in the test on MALME-3M melanoma was more than 10 µM in each case. In addition, the TGI in the test on MCF7 breast, in the test on NCI-H226 lung, in the test on NCI-H460 lung, with SW-620 colon, in the test on T-47D breast and in the test on UO-31 renal was more than 10 µM throughout.
As for `O=C1/C(=C/c2ccc(Cl)cc2)NC(=S)N1CN1CCOCC1`, the TGI in the test on A498 renal, with A549 NSCLC, with ACHN renal, in the test on CCRF-CEM leukemia, in the test on EKVX NSCLC and with HOP-62 NSCLC was more than 100 µM in each case. Moreover, the TGI in the test on HT29 colon, in the test with IGROV1 ovarian, in the test with K-562 leukemia, with M14 melanoma, in the test on MALME-3M melanoma and in the test on MCF7 breast was more than 100 µM each time. For the same compound, the TGI with MDA-MB-435, in the test on NCI-H226 lung, in the test with SW-620 colon, in the test with UACC-62 melanoma and in the test on UO-31 renal was more than 100 µM each time.
As for `Cc1cn(CC2=NCC(C)(C)CN2)c(=O)[nH]c1=O`, the TGI in the test on A498 renal, in the test with A549 NSCLC, in the test on ACHN renal, in the test on CCRF-CEM leukemia, in the test on EKVX NSCLC and with HCC-2998 colon was more than 100 µM throughout. Besides, the TGI in the test on HOP-62 NSCLC, with HT29 colon, with IGROV1 ovarian, in the test on M14 melanoma, in the test on MALME-3M melanoma and in the test on MCF7 breast was more than 100 µM each time. The TGI with NCI-H226 lung, with NCI-H460 lung, in the test with SW-620 colon, in the test on T-47D breast, in the test on UACC-62 melanoma and in the test with UO-31 renal was more than 100 µM throughout.

These data come from PubChem BioAssay (NCI).
